Test results from ChEMBL document CHEMBL1201862, “PubChem BioAssay data set” (2004).
Activity calls are given as the source filed them.

System: not listed separately
Test: Luminescence Cell-Based Dose Confirmation HTS to Identify Activators of 5'UTR Stem-Loop Driven Alpha-Synuclein mRNA Translation in H4 Neuroglioblastoma Cells. [Related pubchem assays: 1829 (Project Summary), 1814 (Primary HTS)]
Format: functional
Settings: not given

**Q.** Which EC50 does the source give for Cn1nnnc1SCC(=O)Nc1nc2ccccc2s1 here?
**A.** 8.16 µM (active)

**Q.** With COc1c2c(cc3oc(=O)c4c5ccc(O)cc5oc4c13)OC(C)(C)CC2 [ISOGLYCYROL] as the compound, how does the EC50 read?
**A.** 0.274 µM (active)

System: not listed separately
Test: Luminescence Cell-Based Dose Response HTS to Identify Activators of Luciferase Translation or Activity in H4 […] Cells. [Related pubchem assays: 1829 (Project Summary), 1814 (Primary HTS)]
Format: functional
Settings: not given

**Q.** With Cn1nnnc1SCC(=O)Nc1nc2ccccc2s1 as the compound, how does the EC50 read?
**A.** 8.98 µM (active)

**Q.** For COc1c2c(cc3oc(=O)c4c5ccc(O)cc5oc4c13)OC(C)(C)CC2 [ISOGLYCYROL], which EC50 is on record?
**A.** 3.13 µM (active)

System: H4
Test: Luminescence Cell-Based Dose Response HTS to Identify Activators of 5'UTR Stem-Loop Driven Prion Protein mRNA Translation in H4 Neuroglioblastoma Cells. [Related pubchem assays: 1829 (Project Summary), 1814 (Primary HTS)]
Format: functional
Settings: Homo sapiens

**Q.** Which EC50 does the source give for Cn1nnnc1SCC(=O)Nc1nc2ccccc2s1 here?
**A.** 33.4 µM (active)

System: not listed separately
Test: Trypanosoma cruzi growth suppression in host cells – NIH3T3 host cells, beta-gal luminescence, confirmation (AID 2044);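 note: intracellular parasites grown in NIH/3T3 mouse fibroblasts as host cells; luminescent beta-galactosidase reporter signal from transgenic T. cruzi replicating inside host cells; inhibitors lower the luminescence signal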
Format: functional, cell-based
Settings: not given

**Q.** For O=C(NC1CCCCC1)C(c1cccs1)N(C(=O)Cc1c[nH]c2ccccc12)c1ccc(F)cc1 (configuration not stated), which EC50 is on record?
**A.** 0.871 µM (active)

**Q.** For CN(C)CCCN(C(=O)CCOc1ccccc1)c1nc2c(F)cccc2s1, which EC50 is on record?
**A.** 0.152 µM (active)

System: not listed separately
Test: NIH3T3 cell viability loss – ATP luminescence, mouse fibroblasts, counter-screen, dose response (AID 2010);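 note: cells exposed to compound for about 90 hours before reading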
Format: functional, cell-based
Settings: not given

**Q.** Which EC50 does the source give for O=C(NC1CCCCC1)C(c1cccs1)N(C(=O)Cc1c[nH]c2ccccc12)c1ccc(F)cc1 (configuration not stated) here?
**A.** 9.47 µM (active)

**Q.** Which EC50 does the source give for CN(C)CCCN(C(=O)CCOc1ccccc1)c1nc2c(F)cccc2s1 here?
**A.** 7.17 µM (active)

System: INS1
Test: INS-1E survival protection against cytokine death – cell-based, luminescence, retest, dose response (AID 449756);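 note: cell death triggered by IL-1 beta plus TNF-alpha plus IFN-gamma mixture; protective hits raise ATP signal compared with cytokine alone wells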
Format: functional
Settings: Rattus norvegicus

**Q.** For Cc1cc(O)c2c(c1)C(=O)C13C(=C2O)C(=O)[C@H]2[C@@H](O)[C@@H]1[C@H]1[C@H](O)[C@@H]3C(=O)C3=C(O)c4c(O)cc(C)cc4C(=O)C312 (some centres not stated), which AC50 is on record?
**A.** 7.65 µM (active)

**Q.** With CC(C)(C)CN1CCC(Oc2cccc(C(=O)NCCCOc3cccnc3)c2)CC1 as the compound, how does the AC50 read?
**A.** 1.25 µM (active)

Target: T1, Fatty acid synthase (Homo sapiens, UniProt P49327)
Test: inhibition of human FAS-TE enzyme activity – biochemical, endpoint fluorescence intensity, uHTS hits, dose response (AID 624327);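 note: fluorescence from hydrolysis of an O-methyl fluorescein acyl ester substrate by the enzyme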
Format: functional
Settings: not given

T1 sequence (P49327 whole entry): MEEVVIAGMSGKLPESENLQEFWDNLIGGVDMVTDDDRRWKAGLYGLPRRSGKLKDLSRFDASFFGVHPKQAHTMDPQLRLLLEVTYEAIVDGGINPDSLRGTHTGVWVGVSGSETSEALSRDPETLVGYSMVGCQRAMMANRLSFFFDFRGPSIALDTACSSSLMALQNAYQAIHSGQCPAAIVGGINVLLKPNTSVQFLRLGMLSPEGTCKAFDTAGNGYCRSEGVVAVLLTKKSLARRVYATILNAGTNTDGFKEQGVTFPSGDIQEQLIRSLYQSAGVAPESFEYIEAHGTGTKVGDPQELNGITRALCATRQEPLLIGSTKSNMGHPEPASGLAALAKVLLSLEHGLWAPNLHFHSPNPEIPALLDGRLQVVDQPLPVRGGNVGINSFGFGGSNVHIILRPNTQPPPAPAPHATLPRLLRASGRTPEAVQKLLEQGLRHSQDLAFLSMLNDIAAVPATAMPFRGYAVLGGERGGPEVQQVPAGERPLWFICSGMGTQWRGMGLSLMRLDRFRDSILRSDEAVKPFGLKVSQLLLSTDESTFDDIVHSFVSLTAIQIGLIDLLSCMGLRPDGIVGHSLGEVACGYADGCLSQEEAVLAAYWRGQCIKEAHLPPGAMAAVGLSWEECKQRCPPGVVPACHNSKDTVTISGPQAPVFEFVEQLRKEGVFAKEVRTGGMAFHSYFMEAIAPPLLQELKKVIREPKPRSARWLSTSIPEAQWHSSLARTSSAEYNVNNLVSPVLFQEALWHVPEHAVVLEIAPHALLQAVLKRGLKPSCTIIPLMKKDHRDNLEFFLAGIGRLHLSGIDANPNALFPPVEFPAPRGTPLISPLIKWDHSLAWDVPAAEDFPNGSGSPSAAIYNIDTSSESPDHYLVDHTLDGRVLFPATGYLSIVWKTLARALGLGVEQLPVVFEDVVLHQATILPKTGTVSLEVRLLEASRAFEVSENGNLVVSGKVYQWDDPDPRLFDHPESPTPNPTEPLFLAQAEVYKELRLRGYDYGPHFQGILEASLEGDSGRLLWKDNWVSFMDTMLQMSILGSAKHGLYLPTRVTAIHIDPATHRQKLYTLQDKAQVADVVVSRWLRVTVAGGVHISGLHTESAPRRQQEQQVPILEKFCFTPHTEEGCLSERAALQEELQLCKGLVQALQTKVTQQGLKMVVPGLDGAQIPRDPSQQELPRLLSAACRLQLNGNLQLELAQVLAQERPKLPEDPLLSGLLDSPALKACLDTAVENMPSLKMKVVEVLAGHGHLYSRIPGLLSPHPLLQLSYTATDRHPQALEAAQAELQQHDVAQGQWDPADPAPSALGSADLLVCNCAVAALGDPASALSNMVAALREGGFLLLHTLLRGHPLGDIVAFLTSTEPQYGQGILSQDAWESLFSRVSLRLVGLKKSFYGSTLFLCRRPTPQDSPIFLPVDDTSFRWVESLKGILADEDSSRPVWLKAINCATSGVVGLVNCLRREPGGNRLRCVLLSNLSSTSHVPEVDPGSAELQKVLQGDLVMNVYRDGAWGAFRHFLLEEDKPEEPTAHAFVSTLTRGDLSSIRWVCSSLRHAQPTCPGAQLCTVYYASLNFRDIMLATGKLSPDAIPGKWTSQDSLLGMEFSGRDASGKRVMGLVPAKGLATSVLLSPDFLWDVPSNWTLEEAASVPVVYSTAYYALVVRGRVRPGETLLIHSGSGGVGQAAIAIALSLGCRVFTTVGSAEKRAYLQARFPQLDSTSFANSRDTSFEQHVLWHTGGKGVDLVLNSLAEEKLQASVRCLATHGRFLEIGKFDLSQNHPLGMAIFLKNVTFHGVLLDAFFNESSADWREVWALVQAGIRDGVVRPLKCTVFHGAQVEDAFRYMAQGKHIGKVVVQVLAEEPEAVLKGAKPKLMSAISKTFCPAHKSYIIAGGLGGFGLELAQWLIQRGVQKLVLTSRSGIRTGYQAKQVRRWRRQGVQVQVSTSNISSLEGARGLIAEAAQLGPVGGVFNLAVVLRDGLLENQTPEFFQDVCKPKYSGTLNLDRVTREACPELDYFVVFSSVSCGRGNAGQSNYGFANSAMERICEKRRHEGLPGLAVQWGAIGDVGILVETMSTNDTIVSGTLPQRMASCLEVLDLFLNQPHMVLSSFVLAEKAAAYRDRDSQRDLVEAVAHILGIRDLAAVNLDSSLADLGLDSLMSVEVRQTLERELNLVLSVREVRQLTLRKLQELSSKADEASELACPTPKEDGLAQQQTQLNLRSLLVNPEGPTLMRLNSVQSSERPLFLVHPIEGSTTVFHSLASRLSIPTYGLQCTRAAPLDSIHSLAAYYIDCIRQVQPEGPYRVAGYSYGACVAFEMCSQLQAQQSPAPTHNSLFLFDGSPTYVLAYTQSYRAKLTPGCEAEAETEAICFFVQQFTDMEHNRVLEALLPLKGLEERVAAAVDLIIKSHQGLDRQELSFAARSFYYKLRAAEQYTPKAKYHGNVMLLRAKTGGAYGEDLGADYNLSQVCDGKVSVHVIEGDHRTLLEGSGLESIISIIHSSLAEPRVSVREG

**Q.** With COc1ccccc1N1CCN(C(=O)C(C)NC(=O)c2cccc([N+](=O)[O-])c2)CC1 (configuration not stated) as the compound, how does the IC50 read?
**A.** 2.72 µM (active)

**Q.** For CCCOc1ccc(NC(=O)CC2C(=O)N(CC)C(=S)N2Cc2cccs2)cc1 (configuration not stated), which IC50 is on record?
**A.** 12.4 µM (active)

**Q.** With O=C(Nn1c(-c2ccc(Br)cc2)nc2ccccc2c1=O)c1ccc([N+](=O)[O-])cc1 as the compound, how does the IC50 read?
**A.** 8.68 µM (active)

**Q.** With O=C(/C=C/c1cccc([N+](=O)[O-])c1)N1CCN(c2ccc(F)cc2)CC1 as the compound, how does the IC50 read?
**A.** 2.32 µM (active)

**Q.** For O=[N+]([O-])c1ccc(Cl)c(S(=O)(=O)Nc2ccc(-c3ccc(N4CCCC4)nn3)cc2)c1, which IC50 is on record?
**A.** 8.93 µM (active)

**Q.** With CC1CCc2c(C(=O)Oc3cccc(-n4cnnn4)c3)csc2C1 (configuration not stated) as the compound, how does the IC50 read?
**A.** 1.71 µM (active)

**Q.** For O=C(NCCC1=CCCCC1)c1ccc(Cl)c([N+](=O)[O-])c1, which IC50 is on record?
**A.** 11.7 µM (active)

**Q.** With CC(C)(C)N1C(=O)[C@H]2[C@@H](c3ccc(Br)cc3)N3C(=O)N(c4cccc(F)c4)C(=O)[C@@]3(Cc3ccccc3)[C@H]2C1=O as the compound, how does the IC50 read?
**A.** 19.8 µM (active)

**Q.** For CC(=O)c1cccc(-c2ccnc3c2CC(C(=O)Nc2cccc(OC(F)(F)F)c2)O3)c1 (configuration not stated), which IC50 is on record?
**A.** 9.72 µM (active)

**Q.** Which IC50 does the source give for Cc1noc(C)c1NC(=O)Nc1cccc2c1O[C@H](CN(C)C(=O)NC1CCCCC1)[C@@H](C)CN([C@H](C)CO)C2=O here?
**A.** 2.47 µM (active)

**Q.** For O=C(CC1C[C@H](C(=O)N2CCOCC2)[C@@]2(CCC3CCCC3)c3[nH]c4ccccc4c3CCN2C1=O)NCc1cccc(C(F)(F)F)c1 (some centres not stated), which IC50 is on record?
**A.** 4.98 µM (active)

**Q.** Which IC50 does the source give for CCCCC(=O)N/N=C/c1cc([N+](=O)[O-])ccc1N1CCOCC1 here?
**A.** 4.56 µM (active)

Target: T1, Fatty acid synthase
Test: inhibition of human FAS-TE enzyme activity – biochemical, kinetic fluorescence intensity, dose response (AID 624326);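 note: rate of fluorescence rise from hydrolysis of a fluorogenic O-methyl fluorescein ester substrate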
Format: functional
Settings: not given

**Q.** Which IC50 does the source give for COc1ccccc1N1CCN(C(=O)C(C)NC(=O)c2cccc([N+](=O)[O-])c2)CC1 (configuration not stated) here?
**A.** 1.48 µM (active)

**Q.** Which IC50 does the source give for CCCOc1ccc(NC(=O)CC2C(=O)N(CC)C(=S)N2Cc2cccs2)cc1 (configuration not stated) here?
**A.** 10.9 µM (active)

**Q.** Which IC50 does the source give for O=C(Nn1c(-c2ccc(Br)cc2)nc2ccccc2c1=O)c1ccc([N+](=O)[O-])cc1 here?
**A.** 7.74 µM (active)

**Q.** With O=C(/C=C/c1cccc([N+](=O)[O-])c1)N1CCN(c2ccc(F)cc2)CC1 as the compound, how does the IC50 read?
**A.** 4.93 µM (active)

**Q.** Which IC50 does the source give for O=[N+]([O-])c1ccc(Cl)c(S(=O)(=O)Nc2ccc(-c3ccc(N4CCCC4)nn3)cc2)c1 here?
**A.** 11.3 µM (active)

**Q.** For CC1CCc2c(C(=O)Oc3cccc(-n4cnnn4)c3)csc2C1 (configuration not stated), which IC50 is on record?
**A.** 1.36 µM (active)

**Q.** For O=C(NCCC1=CCCCC1)c1ccc(Cl)c([N+](=O)[O-])c1, which IC50 is on record?
**A.** 9.92 µM (active)

**Q.** For CC(C)(C)N1C(=O)[C@H]2[C@@H](c3ccc(Br)cc3)N3C(=O)N(c4cccc(F)c4)C(=O)[C@@]3(Cc3ccccc3)[C@H]2C1=O, which IC50 is on record?
**A.** 10.8 µM (active)

**Q.** Which IC50 does the source give for CC(=O)c1cccc(-c2ccnc3c2CC(C(=O)Nc2cccc(OC(F)(F)F)c2)O3)c1 (configuration not stated) here?
**A.** 6.27 µM (active)

**Q.** Which IC50 does the source give for Cc1noc(C)c1NC(=O)Nc1cccc2c1O[C@H](CN(C)C(=O)NC1CCCCC1)[C@@H](C)CN([C@H](C)CO)C2=O here?
**A.** 4.3 µM (active)

**Q.** With O=C(CC1C[C@H](C(=O)N2CCOCC2)[C@@]2(CCC3CCCC3)c3[nH]c4ccccc4c3CCN2C1=O)NCc1cccc(C(F)(F)F)c1 (some centres not stated) as the compound, how does the IC50 read?
**A.** 8.04 µM (active)

**Q.** Which IC50 does the source give for CCCCC(=O)N/N=C/c1cc([N+](=O)[O-])ccc1N1CCOCC1 here?
**A.** 4.13 µM (active)

Target: Paired box protein Pax-8 (Homo sapiens, UniProt Q06710)
Test: PAX8 transcriptional activity inhibition in RMG-I – RMG-I cells, luciferase, cherry-pick, dose response (AID 687027);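 note: luciferase reporter driven by Pax8 target thyroperoxidase promoter measured by SteadyGlo luminescence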
Format: functional, cell-based
Settings: not given

Sequence of Paired box protein Pax-8 (Q06710 whole entry): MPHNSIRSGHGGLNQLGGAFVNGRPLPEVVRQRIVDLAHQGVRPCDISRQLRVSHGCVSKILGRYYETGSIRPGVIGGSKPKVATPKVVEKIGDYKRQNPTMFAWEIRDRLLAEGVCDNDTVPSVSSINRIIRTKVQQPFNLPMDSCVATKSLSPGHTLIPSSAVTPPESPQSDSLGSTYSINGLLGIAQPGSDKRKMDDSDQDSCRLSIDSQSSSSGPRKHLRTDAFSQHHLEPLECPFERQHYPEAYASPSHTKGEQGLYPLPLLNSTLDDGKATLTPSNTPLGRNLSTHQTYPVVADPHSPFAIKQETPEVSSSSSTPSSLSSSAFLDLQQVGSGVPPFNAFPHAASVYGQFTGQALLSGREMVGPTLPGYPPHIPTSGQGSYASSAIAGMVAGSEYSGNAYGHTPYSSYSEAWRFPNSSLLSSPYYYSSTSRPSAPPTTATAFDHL

**Q.** For O=C(NC1CCCCC1)C(c1cccs1)N(C(=O)Cc1c[nH]c2ccccc12)c1ccc(F)cc1 (configuration not stated), which AC50 is on record?
**A.** 11.7 µM (active)

**Q.** Which AC50 does the source give for CN(C)CCCN(C(=O)CCOc1ccccc1)c1nc2c(F)cccc2s1 here?
**A.** 7.17 µM (active)
